As usually defined, the IC50 is the point on the concentration scale where inhibition reaches its midpoint.

One assay has as its target JAK2 (a.a. 828-1132) (Homo sapiens (Human), UniProt O60674). Nature of the assay: In vitro JAK kinase assay (HTRF), JAK2, for JAK2/JAK1 ratio. The format is biochemical. The conditions noted are these: IC50 ratio at 1 mM ATP.
For assay [1], the target named is human JAK1 (a.a. 837-1142) (Homo sapiens, UniProt P23458). Put plainly: In vitro JAK kinase assay (HTRF), JAK1. The format is biochemical. The conditions noted are these: 1 mM ATP. For orientation: In TR-FRET formats the signal depends on donor and acceptor labels being close together.
Protocol: (§1) The catalytic activity of JAK1, JAK2 or JAK3 was assayed by measuring the phosphorylation of a biotinylated peptide. The phosphorylated peptide was detected by homogenous time resolved fluorescence (HTRF). IC5os of compounds are measured for each kinase in the 40 microL reactions that contain the enzyme, ATP and 500 nM peptide in 50 mM Tris (pH 7.8) buffer with 100 mM NaCl, 5 mM DTT, and 0.1 mg/mL (0.01%) BSA. […] Reactions are carried out at room temperature for 1 hour and then stopped with 20 μL 45 mM EDTA, 300 nM SA-APC, 6 nM Eu-Py20 in assay buffer (Perkin Elmer, Boston, MA). Binding to the Europium labeled antibody takes place for 40 minutes and HTRF signal was measured on a Fusion plate reader (Perkin Elmer, Boston, MA).

Chain of JAK2 (a.a. 828-1132) (O60674 828-1132): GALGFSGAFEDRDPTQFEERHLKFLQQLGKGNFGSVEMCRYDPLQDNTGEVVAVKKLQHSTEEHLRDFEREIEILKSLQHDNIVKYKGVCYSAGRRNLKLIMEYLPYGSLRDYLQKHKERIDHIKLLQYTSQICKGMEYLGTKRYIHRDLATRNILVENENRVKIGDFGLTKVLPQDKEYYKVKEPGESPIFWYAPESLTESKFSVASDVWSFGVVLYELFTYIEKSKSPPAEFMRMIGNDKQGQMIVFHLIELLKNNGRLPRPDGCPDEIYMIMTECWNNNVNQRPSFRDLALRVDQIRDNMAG
Protocol for JAK2 (a.a. 828-1132): as §1

For the compound `N#CC[C@]1(n2cc(-c3ncnc4[nH]ccc34)cn2)C[C@H](N2CCC(Oc3cc(CN4CC(O)C4)cc(C(F)(F)F)n3)CC2)C1` [compound 11, {trans-3-(4-{[4-[(3-hydroxyazetidin-1-yl)methyl]-6-(trifluoromethyl)pyridin-2-yl]oxy}piperidin-1-yl)-1-[4-(7H-pyrrolo[2,3-d]pyrimidin-4-yl)-1H-pyrazol-1-yl]cyclobutyl}acetonitrile], at JAK2 (a.a. 828-1132), the JAK2/JAK1 was above 10. In assay [1], this compound yielded an IC50 below 10 nM.
The corresponding values for `N#CCC(C1CCN(c2cccc(Cl)n2)C1)n1cc(-c2ncnc3[nH]ccc23)cn1` (single isomer, unassigned) [compound 6, 3-[1-(6-chloropyridin-2-yl)pyrrolidin-3-yl]-3-[4-(7H-pyrrolo[2,3-d]pyrimidin-4-yl)-1H-pyrazol-1-yl]propanenitrile] are above 10 and below 10 nM.
In the case of `N#CCC(CN1CCN(C(=O)c2ccc(C#N)cc2F)CC1)n1cc(-c2ncnc3[nH]ccc23)cn1` (stereo not drawn) [compound 8, 4-[(4-{3-cyano-2-[4-(7H-pyrrolo[2,3-d]pyrimidin-4-yl)-1H-pyrazol-1-yl]propyl}piperazin-1-yl)carbanoyl]-3-fluorobenzonitrile], the JAK2/JAK1 at JAK2 (a.a. 828-1132) was above 10. This compound also displayed an IC50 in assay [1] below 10 nM.
The corresponding values for `CC(C)(O)c1cc(O[C@H]2CC[C@@H](N3CC(CC#N)(n4cc(-c5ncnc6[nH]ccc56)cn4)C3)CC2)nc(C(F)(F)F)c1` [compound 20, {1-(cis-4-{[4-(1-hydroxy-1-methylethyl)-6-(trifluoromethyl)pyridin-2-yl]oxy}cyclohexyl)-3-[4-(7H-pyrrolo[2,3-d]pyrimidin-4-yl)-1H-pyrazol-1-yl]azetidin-3-yl}acetonitrile] are above 10 and below 10 nM.
The corresponding values for `C[C@@H](CO)NCc1cc(OC2CCN([C@H]3C[C@](CC#N)(n4cc(-c5ncnc6[nH]ccc56)cn4)C3)CC2)nc(C(F)(F)F)c1` [compound 23, {trans-3-(4-{[4-({[(1S)-2-hydroxy-1-methylethyl]amino}meth-yl)-6-(trifluoromethyl)pyridin-2-yl]oxy}piperidin-1-yl)-1-[4-(7H-pyrrolo[2,3-d]pyrimidin-4-yl)-1H-pyrazol-1-yl]cyclobutyl}acetonitrile] are above 10 and below 10 nM.
The like results for `N#CCC1(n2cc(-c3ncnc4[nH]ccc34)cn2)CN([C@H]2CC[C@@H](Oc3cc(CCO)nc(C(F)(F)F)n3)CC2)C1` [compound 18, {1-(cis-4-{[6-(2-hydroxyethyl)-2-(trifluoromethyl)pyrimi-din-4-yl]oxy}cyclohexyl)-3-[4-(7H-pyrrolo[2,3-d]pyrimidin-4-yl)-1H-pyrazol-1-yl]azetidin-3-yl}acetonitrile] were, in that order, above 10 and below 10 nM.
Take `N#CC[C@]1(n2cc(-c3ncnc4[nH]ccc34)cn2)C[C@H](N2CCC(Oc3cc(CCO)cc(C(F)(F)F)n3)CC2)C1` [compound 26, {trans-3-(4-{[4-(2-hydroxyethyl)-6-(trifluoromethyl)pyridin-2-yl]oxy}piperidin-1-yl)-1-[4-(7H-pyrrolo[2,3-d]pyrimidin-4-yl)-1H-pyrazol-1-yl]cyclobutyl}acetonitrile]: the JAK2/JAK1 on JAK2 (a.a. 828-1132) is on record as above 10. The compound also returned an IC50 in assay [1] below 10 nM.
As for `N#CCC1(n2cc(-c3ncnc4[nH]ccc34)cn2)CN([C@H]2CC[C@@H](Oc3cc(CN4CC[C@@H](O)C4)cc(C(F)(F)F)n3)CC2)C1` [compound 21, {1-(cis-4-{[4-{[(3R)-3-hydroxypyrrolidin-1-yl]methyl}-6-(trifluoromethyl)pyridin-2-yl]oxy}cyclohexyl)-3-[4-(7H-pyrrolo[2,3-d]pyrimidin-4-yl)-1H-pyrazol-1-yl]azetidin-3-yl}acetonitrile], the JAK2/JAK1 at JAK2 (a.a. 828-1132) is above 10. This compound also had an IC50 in assay [1] below 10 nM.
The like results for `N#CCC1(n2cc(-c3ncnc4[nH]ccc34)cn2)CN(C2CCN(C(=O)c3ccnc(C(F)(F)F)n3)CC2)C1` [compound 3, [3-[4-(7H-pyrrolo[2,3-d]pyrimidin-4-yl)-1H-pyrazol-1-yl]-1-(1-{[2-(trifluoromethyl)pyrimi-din-4-yl]carbonyl}piperidin-4-yl)azetidin-3-yl]acetonitrile] were, in that order, above 10 and below 10 nM.
The like results for `N#CCC1(n2cc(-c3ncnc4[nH]ccc34)cn2)CN(C2CCN(C(=O)Nc3ccc(F)cc3C(F)(F)F)CC2)C1` [compound 2, 4-{3-(Cyanomethyl)-3-[4-(7H-pyrrolo[2,3-d]pyrimidin-4-yl)-1H-pyrazol-1-yl]azetidin-1-yl}-N-[4-fluoro-2-(trifluoromethyl)phenyl] piperidine-1-carboxamide] were, in that order, above 10 and below 10 nM.
The like results for `N#CCC(C1CCN(c2nc3cccnc3o2)C1)n1cc(-c2ncnc3[nH]ccc23)cn1` (stereo not drawn) [compound 7, 3-(1-[1,3]oxazolo[5,4-b]pyridin-2-ylpyrrolidin-3-yl)-3-[4-(7H-pyrrolo[2,3-d]pyrimidin-4-yl)-1H-pyrazol-1-yl]propanenitrile] were, in that order, above 10 and below 10 nM.
In the case of `C[C@@H](O)CNCc1cc(OC2CCN([C@H]3C[C@](CC#N)(n4cc(-c5ncnc6[nH]ccc56)cn4)C3)CC2)nc(C(F)(F)F)c1` [compound 24, {trans-3-(4-{[4-({[(2R)-2-hydroxypropyl]amino}methyl)-6-(trifluoromethyl)pyridin-2-yl]oxy}piperidin-1-yl)-1-[4-(7H-pyrrolo[2,3-d]pyrimidin-4-yl)-1H-pyrazol-1-yl]cyclobutyl}acetonitrile], the JAK2/JAK1 at JAK2 (a.a. 828-1132) was above 10. This compound also came in with an IC50 in assay [1] below 10 nM.
The corresponding values for `N#CCC1(n2cc(-c3ncnc4[nH]ccc34)cn2)CN([C@H]2CC[C@@H](Oc3cc(CN4CC[C@H](O)C4)cc(C(F)(F)F)n3)CC2)C1` [compound 22, {1-(cis-4-{[4-{[(3S)-3-hydroxypyrrolidin-1-yl]methyl}-6-(trifluoromethyl)pyridin-2-yl]oxy}cyclohexyl)-3-[4-(7H-pyrrolo[2,3-d]pyrimidin-4-yl)-1H-pyrazol-1-yl]azetidin-3-yl}acetonitrile] are above 10 and below 10 nM.
Regarding `C[C@@H](O)c1nc2cnc3ccsc3c2n1[C@H]1CC[C@H](CC#N)OC1` [compound 5, ((2R,5S)-5-{2-[(1R)-1-hydroxyethyl]-1H-imidazo[4,5-d]thieno[3,2-b]pyridin-1-yl}tetrahydro-2H-pyran-2-yl)acetonitrile], the JAK2/JAK1 at JAK2 (a.a. 828-1132) is on record as above 10. Besides, the IC50 in assay [1] is below 100 nM.
The corresponding values for `N#CC[C@]1(n2cc(-c3ncnc4[nH]ccc34)cn2)C[C@H](N2CCN(C(=O)c3ccnc(C(F)(F)F)n3)CC2)C1` [compound 10, [trans-1-[4-(7H-pyrrolo[2,3-d]pyrimidin-4-yl)-1H-pyrazol-1-yl]-3-(4-{[2-(trifluoromethyl)pyrimi-din-4-yl]carbonyl}piperazin-1-yl)cyclobutyl]acetonitrile] are above 10 and below 10 nM.
The corresponding values for `CCNCc1cc(O[C@H]2CC[C@@H](N3CC(CC#N)(n4cc(-c5ncnc6[nH]ccc56)cn4)C3)CC2)nc(C(F)(F)F)c1` [compound 19, {1-(cis-4-{[4-[(ethylamino)methyl]-6-(trifluoromethyl)pyridin-2-yl]oxy}cyclohexyl)-3-[4-(7H-pyrrolo[2,3-d]pyrimidin-4-yl)-1H-pyrazol-1-yl]azetidin-3-yl}acetonitrile] are above 10 and below 10 nM.
The like results for `N#CC[C@]1(n2cc(-c3ncnc4[nH]ccc34)cn2)C[C@H](N2CCC(Oc3cc(CN4CCC[C@@H]4CO)cc(C(F)(F)F)n3)CC2)C1` [compound 13, {trans-3-(4-{[4-{[(2R)-2-(hydroxymethyl)pyrroli-din-1-yl]methyl}-6-(trifluoromethyl)pyridin-2-yl]oxy}piperidin-1-yl)-1-[4-(7H-pyrrolo[2,3-d]pyrimidin-4-yl)-1H-pyrazol-1-yl]cyclobutyl}acetonitrile] were, in that order, above 10 and below 10 nM.
As for `N#CCC(CN1CCN(C(=O)c2ccc(C#N)cc2F)CC1)n1ccc(-c2ncnc3[nH]ccc23)c1` (stereo not drawn) [compound 9, 4-[(4-{3-cyano-2-[3-(7H-pyrrolo[2,3-d]pyrimidin-4-yl)-1H-pyrrol-1-yl]propyl}piperazin-1-yl)carbonyl]-3-fluorobenzonitrile], the JAK2/JAK1 at JAK2 (a.a. 828-1132) is above 10. This compound also returned a half-inhibitory concentration (IC50) in assay [1] below 10 nM.
The like results for `C[C@H](NC(=O)c1cc(F)c(N2CC(CC#N)(n3cc(-c4ncnc5[nH]ccc45)cn3)C2)cc1F)C(F)(F)F` [compound 16, 4-{3-(cyanomethyl)-3-[4-(7H-pyrrolo[2,3-d]pyrimidin-4-yl)-1H-pyrazol-1-yl]azetidin-1-yl}-2,5-difluoro-N-[(1S)-2,2,2-trifluoro-1-methylethyl)benzamide] were, in that order, above 10 and below 10 nM.
The corresponding values for `N#CC[C@]1(n2cc(-c3ncnc4[nH]ccc34)cn2)C[C@H](N2CCC(Oc3cc(CN4CCC[C@H]4CO)cc(C(F)(F)F)n3)CC2)C1` [compound 12, {trans-3-(4-{[4-{[(2S)-2-(hydroxymethyl)pyrroli-din-1-yl]methyl}-6-(trifluoromethyl)pyridin-2-yl]oxy}piperidin-1-yl)-1-[4-(7H-pyrrolo[2,3-d]pyrimidin-4-yl)-1H-pyrazol-1-yl]cyclobutyl}acetonitrile] are above 10 and below 10 nM.
The corresponding values for `C[C@H](O)CNCc1cc(OC2CCN([C@H]3C[C@](CC#N)(n4cc(-c5ncnc6[nH]ccc56)cn4)C3)CC2)nc(C(F)(F)F)c1` [compound 25, {trans-3-(4-{[4-({[(2S)-2-hydroxypropyl]amino}methyl)-6-(trifluoromethyl)pyridin-2-yl]oxy}piperidin-1-yl)-1-[4-(7H-pyrrolo[2,3-d]pyrimidin-4-yl)-1H-pyrazol-1-yl]cyclobutyl}acetonitrile] are above 10 and below 10 nM.

Source of the values: patent US20240058343A1, “TREATMENT OF URTICARIA USING JAK INHIBITORS” (Incyte Corporation, priority 2022, published 2024).
